Laboratory results as given in ChEMBL document CHEMBL4256947, “Treatment of pancreatic and related cancers with 5-acyl-6,7-dihydrothieno[3,2-c]pyridines” (2016).

Target: Protein-cysteine N-palmitoyltransferase HHAT (Homo sapiens) (UniProt Q5VTY9)
Assay: Inhibition of HA/FLAG/His-tagged Hhat (unknown origin) expressed in human 293T cells at 25 uM using biotinylated Shh peptide as substrate pretreated for 20 mins followed by [125I]-iodo-palitoylCoA/substrate addition measured after 1 hr by gamma counting method relative to control

Sequence of Protein-cysteine N-palmitoyltransferase HHAT (Homo sapiens) (Q5VTY9 whole entry): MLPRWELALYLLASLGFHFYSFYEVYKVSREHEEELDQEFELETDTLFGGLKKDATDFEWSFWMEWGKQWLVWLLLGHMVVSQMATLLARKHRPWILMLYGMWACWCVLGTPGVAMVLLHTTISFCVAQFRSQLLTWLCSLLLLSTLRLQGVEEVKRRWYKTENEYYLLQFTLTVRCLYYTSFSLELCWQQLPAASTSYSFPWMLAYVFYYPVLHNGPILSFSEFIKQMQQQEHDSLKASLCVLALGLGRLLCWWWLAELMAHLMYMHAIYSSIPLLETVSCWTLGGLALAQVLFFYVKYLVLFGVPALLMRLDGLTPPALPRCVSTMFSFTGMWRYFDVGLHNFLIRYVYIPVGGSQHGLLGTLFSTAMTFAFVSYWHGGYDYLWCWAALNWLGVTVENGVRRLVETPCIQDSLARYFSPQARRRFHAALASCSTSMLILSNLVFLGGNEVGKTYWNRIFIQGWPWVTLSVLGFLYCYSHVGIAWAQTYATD

Row | Compound | inhibition [%]
1 | CCC(C)CNCC(=O)N1CCc2sccc2C1c1cccc(C)n1 (configuration not stated) | > 75
2 | CCC(C)CNCC(=O)N1CCc2sccc2C1c1cccc(C)c1 (configuration not stated) | > 75
